SMILES strings stand for the structures. pIC50: −log10 of the molar value. Some results are limits rather than exact numbers.

human TDO2, sequence (P48775 whole entry): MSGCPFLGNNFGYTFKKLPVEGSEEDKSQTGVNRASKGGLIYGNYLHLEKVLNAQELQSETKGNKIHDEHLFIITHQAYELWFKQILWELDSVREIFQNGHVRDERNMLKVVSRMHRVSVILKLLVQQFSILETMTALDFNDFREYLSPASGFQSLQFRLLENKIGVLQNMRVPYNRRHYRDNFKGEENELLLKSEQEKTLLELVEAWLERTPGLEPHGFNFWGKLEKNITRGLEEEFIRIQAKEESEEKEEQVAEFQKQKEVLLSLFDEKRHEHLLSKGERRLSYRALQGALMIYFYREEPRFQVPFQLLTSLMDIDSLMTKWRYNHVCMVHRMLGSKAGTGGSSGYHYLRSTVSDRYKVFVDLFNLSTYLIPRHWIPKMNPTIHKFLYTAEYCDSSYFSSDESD

Tested on in one series: not given
Test: not given
Conditions: not given
`CC(Cn1cc(-c2c[nH]c3cc(F)ccc23)cn1)C(N)=O` (single isomer, unassigned) [Compound 35, 3-(4-(6-fluoro-1H-indol-3-yl)-1H-pyrazol-1-yl)-2-methylpropanamide] showed a melting point of 184.5 to 185.5 °C.
The same measure, in the same setting: the same measure for `NC(=O)CCn1cc(-c2c[nH]c3cc(F)ccc23)cn1` [Compound 7, 3-(4-(6-fluoro-1H-indol-3-yl)-1H-pyrazol-1-yl)propanamide]: 173.3 to 175 °C; for `CC(=O)NCCn1cc(-c2c[nH]c3cc(F)ccc23)cn1` [Compound 21, N-(2-(4-(6-fluoro-1H-indol-3-yl)-1H-pyrazol-1-yl)ethyl)acetamide]: 179.5 to 180.8 °C; for `CNCCn1cc(-c2c[nH]c3cc(F)ccc23)cn1` [Compound 24, 2-(4-(6-fluoro-1H-indol-3-yl)-1H-pyrazol-1-yl)-N-methylethanamine]: 94.2 to 95.2 °C.
On the same count and under the same terms, the same measure for `CS(=O)(=O)CCn1cc(-c2c[nH]c3cc(F)ccc23)cn1` [Compound 31, 6-fluoro-3-(1-(2-(methylsulfonyl)ethyl)-1H-pyrazol-4-yl)-1H-indole]: 153.3 to 155.1 °C.
Still for that read-out and setting: to `CS(=O)(=O)CCn1cc(-c2c[nH]c3cc(F)c(F)cc23)cn1` [Compound 32, 5,6-difluoro-3-(1-(2-(methylsulfonyl)ethyl)-1H-pyrazol-4-yl)-1H-indole] belongs 170.6 to 171.9 °C; to `Fc1cc2[nH]cc(-c3cnn(CC4CCNCC4)c3)c2cc1F` [Compound 44, 5,6-difluoro-3-(1-(piperidin-4-ylmethyl)-1H-pyrazol-4-yl)-1H-indole], 167.1 to 168.9 °C; to `Fc1ccc2c(-c3cnn(CC4CCOCC4)c3)c[nH]c2c1` [Compound 58, 6-fluoro-3-(1-((tetrahydro-2H-pyran-4-yl)methyl)-1H-pyrazol-4-yl)-1H-indole], 138.9 to 139.6 °C.
`O=S1(=O)CCC(Cn2cc(-c3c[nH]c4cc(F)ccc34)cn2)CC1` [Compound 60, 4-((4-(6-fluoro-1H-indol-3-yl)-1H-pyrazol-1-yl)methyl)tetrahydro-2H-thiopyran 1,1-dioxide] registered a melting point of 193.1 to 194.1 °C.
Still for that read-out and setting: to `Fc1ccc2c(-c3cnn(C4CCNCC4)c3)c[nH]c2c1` [Compound 78, 6-fluoro-3-(1-(piperidin-4-yl)-1H-pyrazol-4-yl)-1H-indole] belongs 240.1 to 241.8 °C; to `O=C(O)CCC(=O)N1CCC(n2cc(-c3c[nH]c4cc(F)ccc34)cn2)CC1` [Compound 80, 4-(4-(4-(6-fluoro-1H-indol-3-yl)-1H-pyrazol-1-yl)piperidin-1-yl)-4-oxobutanoic acid], 226 to 228 °C.
Still for that read-out and setting: the same measure for `CN(C)CC(=O)N1CCC(n2cc(-c3c[nH]c4cc(F)ccc34)cn2)CC1` [Compound 83, 2-(dimethylamino)-1-(4-(4-(6-fluoro-1H-indol-3-yl)-1H-pyrazol-1-yl)piperidin-1-yl)ethanone]: 193.7 to 196.1 °C.
On the same count and under the same terms, to `O=C(CO)N1CCC(n2cc(-c3c[nH]c4cc(F)ccc34)cn2)CC1` [Compound 84, 1-(4-(4-(6-fluoro-1H-indol-3-yl)-1H-pyrazol-1-yl)piperidin-1-yl)-2-hydroxyethanone] belongs 99.9 to 102.1 °C; to `CC(C)C(=O)N1CCC(n2cc(-c3c[nH]c4cc(F)ccc34)cn2)CC1` [Compound 86, 1-(4-(4-(6-fluoro-1H-indol-3-yl)-1H-pyrazol-1-yl)piperidin-1-yl)-2-methylpropan-1-one], 210.2 to 211 °C.
Compound `CC(C)(C)C(=O)N1CCC(n2cc(-c3c[nH]c4cc(F)ccc34)cn2)CC1` [Compound 87, 1-(4-(4-(6-fluoro-1H-indol-3-yl)-1H-pyrazol-1-yl)piperidin-1-yl)-2,2-dimethylpropan-1-one] had a melting point of 231 to 232 °C.
Still for that read-out and setting: to `O=C(C1CC1)N1CCC(n2cc(-c3c[nH]c4cc(F)ccc34)cn2)CC1` [Compound 88, cyclopropyl(4-(4-(6-fluoro-1H-indol-3-yl)-1H-pyrazol-1-yl)piperidin-1-yl)methanone] belongs 190.7 to 191.4 °C; to `CN(C)C(=O)N1CCC(n2cc(-c3c[nH]c4cc(F)ccc34)cn2)CC1` [Compound 90, 4-(4-(6-fluoro-1H-indol-3-yl)-1H-pyrazol-1-yl)-N,N-dimethylpiperidine-1-carboxamide], 223 to 224.6 °C; to `CN1CCC(n2cc(-c3c[nH]c4cc(F)ccc34)cn2)CC1` [Compound 91, 6-fluoro-3-(1-(1-methylpiperidin-4-yl)-1H-pyrazol-4-yl)-1H-indole], 222.8 to 223.7 °C.

The target in the next series is human TDO2 (Homo sapiens, UniProt P48775). As to the kind of experiment: Assay for TDO2 enzymatic activity determination. The class given is biochemical. On the set-up: made in house. Conditions: human recombinant TDO2, L-Trp 1 mM, room temperature, one hour, kynurenine absorbance at 480 nm. On the procedure:
To measure the TDO2 activity, the reaction mixture contained (final concentrations) potassium phosphate buffer (50 mM, pH 7.5), ascorbic acid (0.25 M), methylene blue (0.125 μM), catalase (40 units/mL, from bovine liver, Sigma), and human recombinant TDO2 enzyme (prepared as described in Dolusic et al. J. Med. Chem.; 2011, 54, 5320-5334; 0.9 μg) without or with the compounds of the present invention at the indicated concentrations (total volume 112.5 μL). The reaction was initiated by the addition of 37.5 μL of L-Trp (final concentration 1 mM) at room temperature. The reaction was conducted at room temperature during one hour and stopped by the addition of 30 μL of 30% (w/v) trichloroacetic acid.
To convert N-formylkynurenine into kynurenine, the reaction mixture was incubated at 65° C. for 30 min. Then 150 μL of the reaction mixture was mixed with 120 μL of 2.5% (w/v) 4-(dimethylamino)-benzaldehyde in acetic acid and incubated for 5 min at room temperature. Kynurenine concentrations were determined by measuring the absorbance at 480 nm. A standard curve was made with pure kynurenine. The TDO activity was measured as described above using ten serial concentrations of the compounds of the present invention. Data were fitted using the Prism software (GraphPad Software, Inc.).
For the compound `NC(=O)CCn1cc(-c2c[nH]c3cc(F)c(F)cc23)cn1` [Compound 8, 3-(4-(5,6-difluoro-1H-indol-3-yl)-1H-pyrazol-1-yl)propanamide], the pIC50 was 5.00 to 6.00.
Consider `Cc1nn(CCC(N)=O)c(C)c1-c1c[nH]c2cc(F)ccc12` [Compound 9, 3-(4-(6-fluoro-1H-indol-3-yl)-3,5-dimethyl-1H-pyrazol-1-yl)propanamide], for which the negative-log IC50 (pIC50) is 5.00 to 6.00.
On the same count and under the same terms, the same measure for `Cc1nn(CCS(C)(=O)=O)c(C)c1-c1c[nH]c2cc(F)ccc12` [Compound 33, 3-(3,5-dimethyl-1-(2-(methylsulfonyl)ethyl)-1H-pyrazol-4-yl)-6-fluoro-1H-indole]: 4.00 to 5.00.
In the case of `Cc1nn(CC2CCNCC2)c(C)c1-c1c[nH]c2cc(F)ccc12` [Compound 55, 3-(3,5-dimethyl-1-(piperidin-4-ylmethyl)-1H-pyrazol-4-yl)-6-fluoro-1H-indole], the pIC50 is 4.00 to 5.00.
The same measure, in the same setting: to `Cc1nn(CC2CCNCC2)cc1-c1c[nH]c2cc(F)ccc12` [Compound 56, 6-fluoro-3-(3-methyl-1-(piperidin-4-ylmethyl)-1H-pyrazol-4-yl)-1H-indole] belongs greater than 6.00.
In the case of `Cc1c(-c2c[nH]c3cc(F)ccc23)cnn1CC1CCNCC1` [Compound 57, 6-fluoro-3-(5-methyl-1-(piperidin-4-ylmethyl)-1H-pyrazol-4-yl)-1H-indole], the pIC50 was 5.00 to 6.00.
On the same count and under the same terms, to `O=S(=O)(N1CCC(n2cc(-c3c[nH]c4cc(F)ccc34)cn2)CC1)C(F)(F)F` [Compound 92, 6-fluoro-3-(1-(1-((trifluoromethyl)sulfonyl)piperidin-4-yl)-1H-pyrazol-4-yl)-1H-indole] belongs 5.00 to 6.00.
For the compound `CC(=O)N1CCC(n2cc(-c3c[nH]c4cc(F)ccc34)c(C)n2)CC1` [Compound 94, 1-(4-(4-(6-fluoro-1H-indol-3-yl)-3-methyl-1H-pyrazol-1-yl)piperidin-1-yl)ethanone], the pIC50 is 4.00 to 5.00.
Still for that read-out and setting: the same measure for `CC(=O)N1CCC(n2ncc(-c3c[nH]c4cc(F)ccc34)c2C)CC1` [Compound 95, 1-(4-(4-(6-fluoro-1H-indol-3-yl)-5-methyl-1H-pyrazol-1-yl)piperidin-1-yl)ethanone]: 5.00 to 6.00.
For the compound `COCCS(=O)(=O)N1CCC(n2cc(-c3c[nH]c4cc(F)ccc34)cn2)CC1` [Compound 96, 6-fluoro-3-(1-(1-((2-methoxyethyl)sulfonyl)piperidin-4-yl)-1H-pyrazol-4-yl)-1H-indole], the pIC50 is 5.00 to 6.00.
Consider `O=S(=O)(C1CC1)N1CCC(n2cc(-c3c[nH]c4cc(F)ccc34)cn2)CC1` [Compound 97, 3-(1-(1-(cyclopropylsulfonyl)piperidin-4-yl)-1H-pyrazol-4-yl)-6-fluoro-1H-indole], for which the pIC50 was 5.00 to 6.00.
On the same count and under the same terms, the same measure for `CCS(=O)(=O)N1CCC(n2cc(-c3c[nH]c4cc(F)ccc34)cn2)CC1` [Compound 98, 3-(1-(1-(ethylsulfonyl)piperidin-4-yl)-1H-pyrazol-4-yl)-6-fluoro-1H-indole]: 5.00 to 6.00; for `CC(C)S(=O)(=O)N1CCC(n2cc(-c3c[nH]c4cc(F)ccc34)cn2)CC1` [Compound 99, 6-fluoro-3-(1-(1-(isopropylsulfonyl)piperidin-4-yl)-1H-pyrazol-4-yl)-1H-indole]: 5.00 to 6.00; for `C=CC(=O)N1CCC(n2cc(-c3c[nH]c4cc(F)ccc34)cn2)CC1` [Compound 102, 1-(4-(4-(6-fluoro-1H-indol-3-yl)-1H-pyrazol-1-yl)piperidin-1-yl)prop-2-en-1-one]: 5.00 to 6.00.
